Numbers after ± are expanded uncertainties.
Experiments:
[1] = molar enthalpy of vaporization or sublimation; conditions: 298.15 K; Liquid
[2] = Liquid

CCCCCCCCCCCCCCCCCCCCCCCCCCCCCCC [hentriacontane]
molar enthalpy [1]: 37.6 ± 1.96 kcal/mol | vapor or sublimation pressure ([2]; 298.15 K): 1.11e-11 ± 2.2e-12 kPa | vapor or sublimation pressure ([2]; 310 K): 1.23e-10 ± 2.5e-11 kPa | vapor or sublimation pressure ([2]; 320 K): 7.88e-10 ± 1.6e-10 kPa | vapor or sublimation pressure ([2]; 330 K): 4.39e-09 ± 8.8e-10 kPa | vapor or sublimation pressure ([2]; 340 K): 2.15e-08 ± 4.3e-09 kPa | vapor or sublimation pressure ([2]; 350 K): 9.39e-08 ± 1.9e-08 kPa | vapor or sublimation pressure ([2]; 360 K): 3.69e-07 ± 7.4e-08 kPa | vapor or sublimation pressure ([2]; 370 K): 1.32e-06 ± 2.6e-07 kPa | vapor or sublimation pressure ([2]; 380 K): 4.3e-06 ± 8.6e-07 kPa | vapor or sublimation pressure ([2]; 390 K): 1.3e-05 ± 2.6e-06 kPa | vapor or sublimation pressure ([2]; 400 K): 3.64e-05 ± 7.3e-06 kPa | vapor or sublimation pressure ([2]; 410 K): 9.56e-05 ± 1.9e-05 kPa | vapor or sublimation pressure ([2]; 420 K): 0.000236 ± 4.7e-05 kPa | vapor or sublimation pressure ([2]; 430 K): 0.00055 ± 0.00011 kPa | vapor or sublimation pressure ([2]; 440 K): 0.00122 ± 0.00024 kPa | vapor or sublimation pressure ([2]; 450 K): 0.00256 ± 0.00051 kPa | vapor or sublimation pressure ([2]; 460 K): 0.00517 ± 0.001 kPa | vapor or sublimation pressure ([2]; 470 K): 0.01 ± 0.002 kPa | vapor or sublimation pressure ([2]; 480 K): 0.0187 ± 0.0037 kPa | vapor or sublimation pressure ([2]; 490 K): 0.0336 ± 0.0067 kPa | vapor or sublimation pressure ([2]; 500 K): 0.0585 ± 0.012 kPa | vapor or sublimation pressure ([2]; 510 K): 0.0989 ± 0.02 kPa | vapor or sublimation pressure ([2]; 520 K): 0.163 ± 0.033 kPa | vapor or sublimation pressure ([2]; 530 K): 0.26 ± 0.052 kPa | vapor or sublimation pressure ([2]; 540 K): 0.406 ± 0.081 kPa | vapor or sublimation pressure ([2]; 550 K): 0.619 ± 0.12 kPa | vapor or sublimation pressure ([2]; 560 K): 0.925 ± 0.18 kPa | vapor or sublimation pressure ([2]; 570 K): 1.35 ± 0.27 kPa | vapor or sublimation pressure ([2]; 580 K): 1.95 ± 0.39 kPa

CCCCCCCCCCCCCCCCCCCCCCCCCCCCCCCCCCCC [hexatriacontane]
molar enthalpy [1]: 43.7 ± 2.25 kcal/mol | vapor or sublimation pressure ([2]; 298.15 K): 4.51e-14 ± 1.4e-14 kPa | vapor or sublimation pressure ([2]; 310 K): 7.39e-13 ± 2.2e-13 kPa | vapor or sublimation pressure ([2]; 320 K): 6.41e-12 ± 1.9e-12 kPa | vapor or sublimation pressure ([2]; 330 K): 4.72e-11 ± 1.4e-11 kPa | vapor or sublimation pressure ([2]; 340 K): 3e-10 ± 9e-11 kPa | vapor or sublimation pressure ([2]; 350 K): 1.66e-09 ± 5e-10 kPa | vapor or sublimation pressure ([2]; 360 K): 8.16e-09 ± 2.5e-09 kPa | vapor or sublimation pressure ([2]; 370 K): 3.58e-08 ± 1.1e-08 kPa | vapor or sublimation pressure ([2]; 380 K): 1.42e-07 ± 4.3e-08 kPa | vapor or sublimation pressure ([2]; 390 K): 5.12e-07 ± 1.5e-07 kPa | vapor or sublimation pressure ([2]; 400 K): 1.7e-06 ± 5.1e-07 kPa | vapor or sublimation pressure ([2]; 410 K): 5.2e-06 ± 1.6e-06 kPa | vapor or sublimation pressure ([2]; 420 K): 1.48e-05 ± 4.4e-06 kPa | vapor or sublimation pressure ([2]; 430 K): 3.96e-05 ± 1.2e-05 kPa | vapor or sublimation pressure ([2]; 440 K): 9.96e-05 ± 3e-05 kPa | vapor or sublimation pressure ([2]; 450 K): 0.000237 ± 7.1e-05 kPa | vapor or sublimation pressure ([2]; 460 K): 0.000534 ± 0.00016 kPa | vapor or sublimation pressure ([2]; 470 K): 0.00115 ± 0.00035 kPa | vapor or sublimation pressure ([2]; 480 K): 0.00236 ± 0.00071 kPa | vapor or sublimation pressure ([2]; 490 K): 0.00467 ± 0.0014 kPa | vapor or sublimation pressure ([2]; 500 K): 0.00888 ± 0.0027 kPa | vapor or sublimation pressure ([2]; 510 K): 0.0163 ± 0.0049 kPa | vapor or sublimation pressure ([2]; 520 K): 0.0289 ± 0.0087 kPa | vapor or sublimation pressure ([2]; 530 K): 0.0498 ± 0.015 kPa | vapor or sublimation pressure ([2]; 540 K): 0.0834 ± 0.025 kPa | vapor or sublimation pressure ([2]; 550 K): 0.136 ± 0.041 kPa | vapor or sublimation pressure ([2]; 560 K): 0.216 ± 0.065 kPa | vapor or sublimation pressure ([2]; 570 K): 0.336 ± 0.1 kPa | vapor or sublimation pressure ([2]; 580 K): 0.51 ± 0.15 kPa

CCCCCCCCCCCCCCCCCCCCCCCCCCCCCCCCCCCCC [heptatriacontane]
molar enthalpy [1]: 44.8 ± 2.29 kcal/mol | vapor or sublimation pressure ([2]; 298.15 K): 1.49e-14 ± 4.5e-15 kPa | vapor or sublimation pressure ([2]; 310 K): 2.63e-13 ± 7.9e-14 kPa | vapor or sublimation pressure ([2]; 320 K): 2.43e-12 ± 7.3e-13 kPa | vapor or sublimation pressure ([2]; 330 K): 1.89e-11 ± 5.7e-12 kPa | vapor or sublimation pressure ([2]; 340 K): 1.26e-10 ± 3.8e-11 kPa | vapor or sublimation pressure ([2]; 350 K): 7.35e-10 ± 2.2e-10 kPa | vapor or sublimation pressure ([2]; 360 K): 3.77e-09 ± 1.1e-09 kPa | vapor or sublimation pressure ([2]; 370 K): 1.72e-08 ± 5.2e-09 kPa | vapor or sublimation pressure ([2]; 380 K): 7.09e-08 ± 2.1e-08 kPa | vapor or sublimation pressure ([2]; 390 K): 2.65e-07 ± 8e-08 kPa | vapor or sublimation pressure ([2]; 400 K): 9.09e-07 ± 2.7e-07 kPa | vapor or sublimation pressure ([2]; 410 K): 2.87e-06 ± 8.6e-07 kPa | vapor or sublimation pressure ([2]; 420 K): 8.43e-06 ± 2.5e-06 kPa | vapor or sublimation pressure ([2]; 430 K): 2.31e-05 ± 6.9e-06 kPa | vapor or sublimation pressure ([2]; 440 K): 5.96e-05 ± 1.8e-05 kPa | vapor or sublimation pressure ([2]; 450 K): 0.000145 ± 4.4e-05 kPa | vapor or sublimation pressure ([2]; 460 K): 0.000335 ± 0.0001 kPa | vapor or sublimation pressure ([2]; 470 K): 0.000735 ± 0.00022 kPa | vapor or sublimation pressure ([2]; 480 K): 0.00154 ± 0.00046 kPa | vapor or sublimation pressure ([2]; 490 K): 0.0031 ± 0.00093 kPa | vapor or sublimation pressure ([2]; 500 K): 0.006 ± 0.0018 kPa | vapor or sublimation pressure ([2]; 510 K): 0.0112 ± 0.0034 kPa | vapor or sublimation pressure ([2]; 520 K): 0.0202 ± 0.0061 kPa | vapor or sublimation pressure ([2]; 530 K): 0.0353 ± 0.011 kPa | vapor or sublimation pressure ([2]; 540 K): 0.0598 ± 0.018 kPa | vapor or sublimation pressure ([2]; 550 K): 0.0987 ± 0.03 kPa | vapor or sublimation pressure ([2]; 560 K): 0.159 ± 0.048 kPa | vapor or sublimation pressure ([2]; 570 K): 0.25 ± 0.075 kPa | vapor or sublimation pressure ([2]; 580 K): 0.383 ± 0.12 kPa

CCCCCCCCCCCCCCCCCCCCCCCCCCCCCCCC [dotriacontane]
molar enthalpy [1]: 38.8 ± 2.01 kcal/mol | vapor or sublimation pressure ([2]; 298.15 K): 3.62e-12 ± 7.3e-13 kPa | vapor or sublimation pressure ([2]; 310 K): 4.33e-11 ± 8.7e-12 kPa | vapor or sublimation pressure ([2]; 320 K): 2.95e-10 ± 5.9e-11 kPa | vapor or sublimation pressure ([2]; 330 K): 1.74e-09 ± 3.5e-10 kPa | vapor or sublimation pressure ([2]; 340 K): 8.99e-09 ± 1.8e-09 kPa | vapor or sublimation pressure ([2]; 350 K): 4.12e-08 ± 8.2e-09 kPa | vapor or sublimation pressure ([2]; 360 K): 1.69e-07 ± 3.4e-08 kPa | vapor or sublimation pressure ([2]; 370 K): 6.31e-07 ± 1.3e-07 kPa | vapor or sublimation pressure ([2]; 380 K): 2.14e-06 ± 4.3e-07 kPa | vapor or sublimation pressure ([2]; 390 K): 6.71e-06 ± 1.3e-06 kPa | vapor or sublimation pressure ([2]; 400 K): 1.95e-05 ± 3.9e-06 kPa | vapor or sublimation pressure ([2]; 410 K): 5.27e-05 ± 1e-05 kPa | vapor or sublimation pressure ([2]; 420 K): 0.000134 ± 2.7e-05 kPa | vapor or sublimation pressure ([2]; 430 K): 0.000321 ± 6.4e-05 kPa | vapor or sublimation pressure ([2]; 440 K): 0.000729 ± 0.00015 kPa | vapor or sublimation pressure ([2]; 450 K): 0.00158 ± 0.00032 kPa | vapor or sublimation pressure ([2]; 460 K): 0.00325 ± 0.00065 kPa | vapor or sublimation pressure ([2]; 470 K): 0.00643 ± 0.0013 kPa | vapor or sublimation pressure ([2]; 480 K): 0.0122 ± 0.0024 kPa | vapor or sublimation pressure ([2]; 490 K): 0.0224 ± 0.0045 kPa | vapor or sublimation pressure ([2]; 500 K): 0.0398 ± 0.008 kPa | vapor or sublimation pressure ([2]; 510 K): 0.0684 ± 0.014 kPa | vapor or sublimation pressure ([2]; 520 K): 0.114 ± 0.023 kPa | vapor or sublimation pressure ([2]; 530 K): 0.185 ± 0.037 kPa | vapor or sublimation pressure ([2]; 540 K): 0.294 ± 0.059 kPa | vapor or sublimation pressure ([2]; 550 K): 0.454 ± 0.091 kPa | vapor or sublimation pressure ([2]; 560 K): 0.687 ± 0.14 kPa | vapor or sublimation pressure ([2]; 570 K): 1.02 ± 0.2 kPa | vapor or sublimation pressure ([2]; 580 K): 1.48 ± 0.3 kPa

From the NIST ThermoML archive (doi:10.1021/je030236t)
